Test results as given in US12427134B2, “Methods of reducing the risk of cardiovascular events in a subject with atrial fibrillation and/or atrial flutter” (priority 2019, dated 2025).

Test system: hypertriglyceridemic patients with cardiovascular disease or at high risk for cardiovascular disease
Assay: REDUCE-IT: electrocardiograms, vital signs (blood pressure, pulse), weight and waist circumference
Assay type: in vivo, human
Procedure: Blood pressure was measured using a standardized process: • Patient sat for ≥5 minutes with feet flat on the floor and measurement arm supported so that the midpoint of the manometer cuff was at heart level; and • Used a mercury sphygmomanometer or automatic blood pressure device with an appropriately sized cuff with the bladder centered over the brachial artery.
Blood pressure was recorded to the nearest 2 mmHg mark on the manometer or to the nearest whole number on an automatic device. A blood pressure reading was repeated 1 to 2 minutes later, and the second reading recorded to the nearest 2 mmHg mark.
Height, Weight and Body Mass Index: Height and weight were measured. Measurement of weight was performed with the patient dressed in indoor clothing, with shoes removed, and bladder empty.
Waist Circumference: Waist circumference was measured with a tape measure, as follows: Start at the top of the hip bone then bring the tape measure all the way around—level with the navel. Make sure the tape measure is snug, but without compressing the skin, and that it is parallel with the floor. Patients should not have held their breath while measuring waist circumference.
12-Lead Electrocardiogram (ECG): ECGs (standard 12-lead) were obtained annually. Site personnel made every attempt to perform a patient's ECG using the same equipment at each visit. ECGs were reviewed by the site for the detection of silent MI. Silent MIs were sent for event adjudication. All post-randomization ECGs (protocol-specified and other) were sent to the CEC for evaluation of silent MI. The 12-lead ECG parameters included Heart Rate (bpm), PR Interval (msec), QRS Interval (msec), QT Interval (msec), and QTc Interval (msec) were measured, and Overall Interpretation and Silent MI (Yes/No) were summarized for all patients at Screening (Visit 1), Randomization visit (Visit 2; Day 0) and all other follow-up visits including the last visit of the study.
A treatment-emergent PCS high value at any time was defined as a change from a value less than or equal to the defined PCS value at baseline to a PCS high value at any post-baseline measurement. A treatment-emergent PCS low value at any time was defined as a change from a value greater than or equal to the lower PCS value at baseline to a PCS low value at any post-baseline measurement.
As an additional exploratory analysis, the relationship between post-baseline biomarker values and treatment effects with the primary and key secondary endpoints were assessed by adding biomarker values (for example, at 4 months, or at 1 year, etc.) as time-dependent covariates in the Cox proportional hazards model. Diagnostic plots for the proportional hazard's assumption was evaluated. Weight was measured at the screening visit and at all follow-up visits, including the last visit of the study. Waist circumference was measured at the randomization visit (Visit 2; Day 0), Visit 5 (Day 720) and the last visit of the study. Descriptive statistics were presented by visit and treatment group for baseline, post-treatment change from baseline, and the percent change from baseline. Analysis methods for repeated measurements were used to compare percent change from baseline between treatments.

[1] = Baseline (Visit 2), Safety population
[2] = Visit 9 (n = 8), Safety population
[3] = any post-baseline visit, 3683 patients with data
[4] = any post-baseline visit, 3823 patients with data
[5] = any post-baseline visit, 3834 patients with data
[6] = any post-baseline visit, 3983 patients with data

## CC/C=C\C/C=C\C/C=C\C/C=C\C/C=C\CCCC(=O)OCC [AMR101, eicosapentaenoic acid ethyl ester]
[1]
  Diastolic Blood Pressure, mean baseline value: 78.1 mmHg
  ECG Heart Rate, mean baseline value: 66.6 beats/minute
  Heart Rate (vital sign), mean baseline value: 68.1 beats/minute
  PR Interval, mean baseline value: 172.2 ms
  QTc Interval, mean baseline value: 422.4 ms
  Systolic Blood Pressure, mean baseline value: 132.6 mmHg
Last Visit, Safety population
  Diastolic Blood Pressure, mean change from baseline: −0.7 mmHg
  ECG Heart Rate, mean change from baseline: 2.1 beats/minute
  Heart Rate (vital sign), mean change from baseline: 1.7 beats/minute
  PR Interval, mean change from baseline: 1.7 ms
  QTc Interval, mean change from baseline: 5.0 ms
  Systolic Blood Pressure, mean change from baseline: 0.9 mmHg
Safety population, N = 4089
  ECG TEAE - ECG signs of myocardial ischemia, % patients: (0.0) %
  ECG TEAE - ECG signs of myocardial ischemia, n patients: 2
  ECG TEAE - Electrocardiogram PR prolongation, % patients: (0.0) %
  ECG TEAE - Electrocardiogram PR prolongation, n patients: 0
  ECG TEAE - Electrocardiogram Q wave abnormal, % patients: (0.0) %
  ECG TEAE - Electrocardiogram Q wave abnormal, n patients: 1
  ECG TEAE - Electrocardiogram QRS complex abnormal, % patients: (0.0) %
  ECG TEAE - Electrocardiogram QRS complex abnormal, n patients: 2
  ECG TEAE - Electrocardiogram QT prolonged, % patients: (0.2) %
  ECG TEAE - Electrocardiogram QT prolonged, n patients: 10
  ECG TEAE - Electrocardiogram ST segment abnormal, % patients: (0.1) %
  ECG TEAE - Electrocardiogram ST segment abnormal, n patients: 6
  ECG TEAE - Electrocardiogram ST segment depression, % patients: (0.1) %
  ECG TEAE - Electrocardiogram ST segment depression, n patients: 4
  ECG TEAE - Electrocardiogram ST-T change, % patients: (0.0) %
  ECG TEAE - Electrocardiogram ST-T change, n patients: 1
  ECG TEAE - Electrocardiogram ST-T segment abnormal, % patients: (0.0) %
  ECG TEAE - Electrocardiogram ST-T segment abnormal, n patients: 2
  ECG TEAE - Electrocardiogram T wave abnormal, % patients: (0.1) %
  ECG TEAE - Electrocardiogram T wave abnormal, n patients: 6
  ECG TEAE - Electrocardiogram T wave amplitude decreased, % patients: (0.0) %
  ECG TEAE - Electrocardiogram T wave amplitude decreased, n patients: 0
  ECG TEAE - Electrocardiogram T wave inversion, % patients: (0.2) %
  ECG TEAE - Electrocardiogram T wave inversion, n patients: 7
  ECG TEAE - Electrocardiogram T wave normal, % patients: (0.0) %
  ECG TEAE - Electrocardiogram T wave normal, n patients: 0
  ECG TEAE - Electrocardiogram abnormal, % patients: (0.2) %
  ECG TEAE - Electrocardiogram abnormal, n patients: 10
  ECG TEAE - Electrocardiogram change, % patients: (0.1) %
  ECG TEAE - Electrocardiogram change, n patients: 3
  ECG TEAE - Exercise electrocardiogram abnormal, % patients: (0.0) %
  ECG TEAE - Exercise electrocardiogram abnormal, n patients: 1
Visit 3, Safety population
  Diastolic Blood Pressure, mean change from baseline: 0.1 mmHg
  Heart Rate (vital sign), mean change from baseline: 1.2 beats/minute
  Systolic Blood Pressure, mean change from baseline: −0.5 mmHg
Visit 4, Safety population
  Diastolic Blood Pressure, mean change from baseline: −0.1 mmHg
  ECG Heart Rate, mean change from baseline: 1.2 beats/minute
  Heart Rate (vital sign), mean change from baseline: 0.9 beats/minute
  PR Interval, mean change from baseline: -0.3 ms
  QTc Interval, mean change from baseline: 1.8 ms
  Systolic Blood Pressure, mean change from baseline: −0.2 mmHg
Visit 5, Safety population
  Diastolic Blood Pressure, mean change from baseline: −0.1 mmHg
  ECG Heart Rate, mean change from baseline: 1.7 beats/minute
  Heart Rate (vital sign), mean change from baseline: 1.3 beats/minute
  PR Interval, mean change from baseline: 0.4 ms
  QTc Interval, mean change from baseline: 2.8 ms
  Systolic Blood Pressure, mean change from baseline: 0.5 mmHg
Visit 6, Safety population
  Diastolic Blood Pressure, mean change from baseline: −0.4 mmHg
  ECG Heart Rate, mean change from baseline: 1.6 beats/minute
  Heart Rate (vital sign), mean change from baseline: 1.4 beats/minute
  PR Interval, mean change from baseline: 0.8 ms
  QTc Interval, mean change from baseline: 3.7 ms
  Systolic Blood Pressure, mean change from baseline: 0.9 mmHg
Visit 7, Safety population
  Diastolic Blood Pressure, mean change from baseline: −0.5 mmHg
  ECG Heart Rate, mean change from baseline: 1.8 beats/minute
  Heart Rate (vital sign), mean change from baseline: 1.5 beats/minute
  PR Interval, mean change from baseline: 1.4 ms
  QTc Interval, mean change from baseline: 5.0 ms
  Systolic Blood Pressure, mean change from baseline: 0.8 mmHg
Visit 8, Safety population
  Diastolic Blood Pressure, mean change from baseline: −1.0 mmHg
  ECG Heart Rate, mean change from baseline: 1.4 beats/minute
  Heart Rate (vital sign), mean change from baseline: 0.9 beats/minute
  PR Interval, mean change from baseline: 2.2 ms
  QTc Interval, mean change from baseline: 6.6 ms
  Systolic Blood Pressure, mean change from baseline: 0.4 mmHg
Visit 9 (n = 5), Safety population
  PR Interval, mean change from baseline: -21.2 ms
Visit 9 (n = 7), Safety population
  ECG Heart Rate, mean change from baseline: 7.6 beats/minute
[2]
  Diastolic Blood Pressure, mean change from baseline: −2.7 mmHg
  Heart Rate (vital sign), mean change from baseline: 2.8 beats/minute
  Systolic Blood Pressure, mean change from baseline: −5.4 mmHg
[3]
  PCS ECG finding: PR Interval <120 msec, % patients: (7.1) %
  PCS ECG finding: PR Interval <120 msec, n patients: 261
  PCS ECG finding: PR Interval >120 msec and increase >20 msec from baseline, % patients: (24.8) %
  PCS ECG finding: PR Interval >120 msec and increase >20 msec from baseline, n patients: 913
[4]
  PCS ECG finding: QTc Interval >500 msec, % patients: (5.4) %
  PCS ECG finding: QTc Interval >500 msec, n patients: 208
[5]
  PCS ECG finding: QRS Interval >110 msec, % patients: (29.3) %
  PCS ECG finding: QRS Interval >110 msec, n patients: 1124
[6]
  Diastolic Blood Pressure Decrease of ≥10 mmHg, % patients: (39.4) %
  Diastolic Blood Pressure Decrease of ≥10 mmHg, n patients: 1569
  Diastolic Blood Pressure Increase of ≥10 mmHg, % patients: (36.2) %
  Diastolic Blood Pressure Increase of ≥10 mmHg, n patients: 1442
  Diastolic Blood Pressure PCS High ≥100 mmHg and increase of ≥10 mmHg, % patients: (4.5) %
  Diastolic Blood Pressure PCS High ≥100 mmHg and increase of ≥10 mmHg, n patients: 179
  Diastolic Blood Pressure PCS High ≥100 mmHg, % patients: (5.6) %
  Diastolic Blood Pressure PCS High ≥100 mmHg, n patients: 223
  Diastolic Blood Pressure PCS Low ≤50 mmHg and decrease of ≥10 mmHg, % patients: (0.9) %
  Diastolic Blood Pressure PCS Low ≤50 mmHg and decrease of ≥10 mmHg, n patients: 35
  Diastolic Blood Pressure PCS Low ≤50 mmHg, % patients: (1.1) %
  Diastolic Blood Pressure PCS Low ≤50 mmHg, n patients: 42
  Pulse Decrease of ≥15 beats/min, % patients: (14.1) %
  Pulse Decrease of ≥15 beats/min, n patients: 562
  Pulse Increase of ≥15 beats/min, % patients: (27.4) %
  Pulse Increase of ≥15 beats/min, n patients: 1092
  Pulse PCS High ≥90 beats/min and increase of ≥15 beats/min, % patients: (9.3) %
  Pulse PCS High ≥90 beats/min and increase of ≥15 beats/min, n patients: 370
  Pulse PCS High ≥90 beats/min, % patients: (13.8) %
  Pulse PCS High ≥90 beats/min, n patients: 551
  Pulse PCS Low ≤50 beats/min and decrease of ≥15 beats/min, % patients: (1.7) %
  Pulse PCS Low ≤50 beats/min and decrease of ≥15 beats/min, n patients: 68
  Pulse PCS Low ≤50 beats/min, % patients: (7.4) %
  Pulse PCS Low ≤50 beats/min, n patients: 293
  Systolic Blood Pressure Decrease of ≥20 mmHg, % patients: (25.3) %
  Systolic Blood Pressure Decrease of ≥20 mmHg, n patients: 1009
  Systolic Blood Pressure Increase of ≥20 mmHg, % patients: (29.2) %
  Systolic Blood Pressure Increase of ≥20 mmHg, n patients: 1163
  Systolic Blood Pressure PCS High ≥160 mmHg and increase of ≥20 mmHg, % patients: (11.3) %
  Systolic Blood Pressure PCS High ≥160 mmHg and increase of ≥20 mmHg, n patients: 450
  Systolic Blood Pressure PCS High ≥160 mmHg, % patients: (18.0) %
  Systolic Blood Pressure PCS High ≥160 mmHg, n patients: 715
  Systolic Blood Pressure PCS Low ≤90 mmHg and decrease of ≥20 mmHg, % patients: (0.7) %
  Systolic Blood Pressure PCS Low ≤90 mmHg and decrease of ≥20 mmHg, n patients: 27
  Systolic Blood Pressure PCS Low ≤90 mmHg, % patients: (1.0) %
  Systolic Blood Pressure PCS Low ≤90 mmHg, n patients: 40
